Measurements taken from PubChem BioAssay (NCI).
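Cells were grown in 96-well plates and exposed to each compound for 48 hours at five concentrations; endpoints were interpolated linearly between bracketing concentrations, or set to the highest concentration if not reached. At the GI50, growth is halved. At the TGI there is no net growth.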

Assays:
Experiment in all cases: NCI tumour cell line growth inhibition, 48 h
[1] = tested on: HOP-62 NSCLC
[2] = tested on: MOLT-4 leukemia
[3] = tested on: SK-MEL-2 melanoma
[4] = tested on: NCI-H23 lung
[5] = tested on: OVCAR-3 ovarian
[6] = tested on: SF-295 CNS
[7] = tested on: CAKI-1 renal
[8] = tested on: NCI-H522 lung
[9] = tested on: UACC-257 melanoma
[10] = tested on: BT-549 breast
[11] = tested on: NCI/ADR-RES ovarian
[12] = tested on: HL-60(TB) leukemia
[13] = tested on: SF-268 CNS
[14] = tested on: NCI-H226 lung
[15] = tested on: SK-MEL-28 melanoma
[16] = tested on: A498 renal
[17] = tested on: OVCAR-8 ovarian
[18] = tested on: UO-31 renal
[19] = tested on: SNB-19 CNS
[20] = tested on: SK-OV-3 ovarian
[21] = tested on: M14 melanoma
[22] = tested on: MALME-3M melanoma
[23] = tested on: OVCAR-4 ovarian
[24] = tested on: U251 CNS
[25] = tested on: SNB-75 CNS
[26] = tested on: LOX IMVI melanoma
[27] = tested on: OVCAR-5 ovarian
[28] = tested on: IGROV1 ovarian
[29] = tested on: COLO 205 colon
[30] = tested on: EKVX NSCLC
[31] = tested on: HOP-92 NSCLC
[32] = tested on: CCRF-CEM leukemia
[33] = tested on: HCT-15 colon
[34] = tested on: HS 578T breast
[35] = tested on: TK-10 renal
[36] = tested on: HCC-2998 colon
[37] = tested on: A549 NSCLC
[38] = tested on: MCF7 breast
[39] = tested on: SK-MEL-5 melanoma
[40] = tested on: ACHN renal
[41] = tested on: PC-3 prostate
[42] = tested on: MDA-MB-435
[43] = tested on: SW-620 colon
[44] = tested on: 786-0 renal
[45] = tested on: RXF 393 renal
[46] = tested on: SN12C renal
[47] = tested on: SR leukemia
[48] = tested on: K-562 leukemia
[49] = tested on: HCT-116 colon
[50] = tested on: RPMI-8226 leukemia
[51] = tested on: DU-145 prostate
[52] = tested on: KM12 colon
[53] = tested on: NCI-H460 lung
[54] = tested on: UACC-62 melanoma
[55] = tested on: MDA-MB-231 breast
[56] = tested on: T-47D breast
[57] = tested on: HT29 colon
[58] = tested on: SF-539 CNS
[59] = tested on: MDA-N

COC(=O)CCC/C=C\C[C@H]1C=CC(=O)/C1=C/C[C@@H](O)C/C=C\CC(F)(F)F
GI50 [1]: 1.89 µM | TGI [1]: 5.16 µM | GI50 [2]: 0.773 µM | TGI [2]: 4.22 µM | GI50 [3]: 2.55 µM | TGI [3]: 7.53 µM | GI50 [4]: 1.9 µM | TGI [4]: 4.16 µM | GI50 [5]: 1.31 µM | TGI [5]: 3.49 µM | GI50 [6]: 2.51 µM | TGI [6]: 5.82 µM | GI50 [7]: 4.07 µM | TGI [7]: 14.8 µM | GI50 [8]: 1.06 µM | TGI [8]: 2.57 µM | GI50 [9]: 2.54 µM | TGI [9]: 7.82 µM | GI50 [10]: 2.12 µM | TGI [10]: 5.37 µM | GI50 [11]: 2.32 µM | TGI [11]: 8.33 µM | GI50 [12]: 1.93 µM | TGI [12]: 7.79 µM | GI50 [13]: 2.84 µM | TGI [13]: 13.8 µM | GI50 [14]: 2.08 µM | TGI [14]: 4.1 µM | GI50 [15]: 2.08 µM | TGI [15]: 4.77 µM | GI50 [16]: 2.47 µM | TGI [16]: 4.57 µM | GI50 [17]: 3.3 µM | TGI [17]: 13.4 µM | GI50 [18]: 1.7 µM | TGI [18]: 3.36 µM | GI50 [19]: 2.99 µM | TGI [19]: 14.2 µM | GI50 [20]: 5.55 µM | TGI [20]: 16.5 µM | GI50 [21]: 1.5 µM | TGI [21]: 4.39 µM | GI50 [22]: 2.39 µM | TGI [22]: 7.03 µM | GI50 [23]: 5.09 µM | TGI [23]: 18.6 µM | GI50 [24]: 1.79 µM | TGI [24]: 4.32 µM | GI50 [25]: 12.4 µM | TGI [25]: 29.3 µM | GI50 [26]: 0.243 µM | TGI [26]: 0.668 µM | GI50 [27]: 3.42 µM | TGI [27]: 9.65 µM | GI50 [28]: 2.78 µM | TGI [28]: 7.6 µM | GI50 [29]: 2.03 µM | TGI [29]: 4.58 µM | GI50 [30]: 4.04 µM | TGI [30]: 14.6 µM | GI50 [31]: 3.27 µM | TGI [31]: 7.88 µM | GI50 [32]: 0.345 µM | TGI [32]: 5.27 µM | GI50 [33]: 1.07 µM | TGI [33]: 3.29 µM | GI50 [34]: 8.98 µM | TGI [34]: 70.3 µM | GI50 [35]: 3.22 µM | TGI [35]: 10.8 µM | GI50 [36]: 2 µM | TGI [36]: 3.5 µM | GI50 [37]: 2.91 µM | TGI [37]: 8.73 µM | GI50 [38]: 0.393 µM | TGI [38]: 10.3 µM | GI50 [39]: 1.64 µM | TGI [39]: 3.05 µM | GI50 [40]: 1.95 µM | TGI [40]: 3.97 µM | GI50 [41]: 2.79 µM | TGI [41]: 7.31 µM | GI50 [42]: 2.05 µM | TGI [42]: 10.6 µM | GI50 [43]: 1.89 µM | TGI [43]: 12.4 µM | GI50 [44]: 1.85 µM | TGI [44]: 3.57 µM | GI50 [45]: 1.98 µM | TGI [45]: 3.66 µM | GI50 [46]: 2.53 µM | TGI [46]: 7.38 µM | GI50 [47]: 0.384 µM | TGI [47]: 5.44 µM | GI50 [48]: 0.789 µM | TGI [48]: 28.3 µM | GI50 [49]: 1.26 µM | TGI [49]: 2.75 µM | GI50 [50]: 1.26 µM | TGI [50]: 7.9 µM | GI50 [51]: 3.89 µM | TGI [51]: 14.7 µM | GI50 [52]: 1.97 µM | TGI [52]: 5.65 µM | GI50 [53]: 3.04 µM | TGI [53]: 10.6 µM | GI50 [54]: 1.2 µM | TGI [54]: 3.64 µM | GI50 [55]: 2.72 µM | TGI [55]: 7.41 µM | GI50 [56]: 3.06 µM | TGI [56]: 16.3 µM | GI50 [57]: 1.89 µM | TGI [57]: 4.49 µM | GI50 [58]: 3.24 µM | TGI [58]: 9.09 µM

O=S(CCCl)c1c2ccccc2nc2ccccc12 (stereo unspecified)
TGI [1]: > 100 µM | TGI [2]: > 100 µM | TGI [3]: > 100 µM | TGI [4]: > 100 µM | TGI [5]: > 100 µM | TGI [6]: > 100 µM | TGI [7]: 80.5 µM | TGI [8]: 35.6 µM | TGI [9]: > 100 µM | TGI [11]: > 100 µM | TGI [12]: > 100 µM | TGI [13]: > 100 µM | TGI [14]: > 100 µM | TGI [15]: > 100 µM | TGI [16]: > 100 µM | TGI [17]: > 100 µM | TGI [18]: > 100 µM | TGI [19]: > 100 µM | TGI [20]: > 100 µM | TGI [21]: > 100 µM | TGI [22]: > 100 µM | TGI [23]: > 100 µM | TGI [24]: > 100 µM | TGI [25]: > 100 µM | TGI [26]: > 100 µM | TGI [27]: > 100 µM | TGI [28]: > 100 µM | TGI [29]: > 100 µM | TGI [30]: > 100 µM | TGI [31]: > 100 µM | TGI [32]: > 100 µM | TGI [33]: > 100 µM | TGI [35]: > 100 µM | TGI [36]: > 100 µM | TGI [37]: > 100 µM | TGI [38]: > 100 µM | TGI [40]: > 100 µM | TGI [41]: > 100 µM | TGI [42]: > 100 µM | TGI [43]: > 100 µM | TGI [44]: > 100 µM | TGI [45]: > 100 µM | TGI [46]: 88.7 µM | TGI [47]: > 100 µM | TGI [48]: > 100 µM | TGI [49]: > 100 µM | TGI [51]: > 100 µM | TGI [52]: > 100 µM | TGI [53]: > 100 µM | TGI [54]: > 100 µM | TGI [59]: > 100 µM | TGI [55]: > 100 µM | TGI [56]: > 100 µM | TGI [57]: > 100 µM | TGI [58]: > 100 µM
